Active and inactive are the calls of the source. No cut-off for these calls is given here.
Key:
[1] = test system: Brassica rapa subsp. oleifera; experiment: Growth-promoting activity in Brassica campestris assessed as whole body growth at 25 degC after 1 week by filter paper assay under 12 hrs/12 hrs light-dark cycle condition; type: functional, organism-based
[2] = test system: Brassica rapa subsp. oleifera; experiment: Growth-promoting activity in Brassica campestris assessed as root growth at 25 degC after 1 week by filter paper assay under 12 hrs/12 hrs light-dark cycle condition; type: functional, organism-based

Compound	Activity [1]	Activity [2]
CC(C)CC(=O)C[C@@](C)(O)[C@H]1CC[C@H]2[C@@H]3C[C@H](O[C@@H]4O[C@H](C)C(=O)[C@H](O[C@@H]5O[C@H](C)[C@@H](O[C@@H]6O[C@H](C)[C@H](O)[C@H](O)[C@H]6O[C@@H]6O[C@H](C)[C@H](O)[C@H](O)[C@H]6O)[C@H](O)[C@H]5O[C@@H]5O[C@H](C)[C@@H](O)[C@H](O)[C@H]5O)[C@H]4O)[C@H]4C[C@@H](OS(=O)(=O)O)CC[C@]4(C)C3=CC[C@@]21C	inactive	
CCCCCCCC/C=C\CCCCCC/C=C/[C@@H](O)[C@H](CO[C@@H]1O[C@H](CO)[C@@H](O)[C@H](O)[C@H]1O)NC(=O)[C@H](O)CCCCCCCCCCCCCC	Active	
CCCCCCCC/C=C\CCCCCCC/C=C/[C@@H](O)[C@H](CO[C@@H]1O[C@H](CO)[C@@H](O)[C@H](O)[C@H]1O)NC(=O)[C@H](O)CCCCCCCCCCCCC	Active	
CCCCCCCC/C=C\CCCCCCC/C=C/[C@@H](O)[C@H](CO[C@@H]1O[C@H](CO)[C@@H](O)[C@H](O)[C@H]1O)NC(=O)[C@H](O)CCCCCCCCCCCC	Active	
CCCCCCCC/C=C\CCCCCCCC[C@@H](O)[C@@H](O)[C@H](CO)NC(=O)[C@H](O)CCCCCCCCCCCCCC		Active
CC(C)CC(=O)C[C@@](C)(O)[C@H]1CC[C@H]2[C@@H]3C[C@H](O[C@@H]4O[C@H](C)[C@@H](O)[C@H](O[C@@H]5OC[C@@H](O[C@@H]6O[C@H](CO)[C@H](O)[C@H](O)[C@H]6O[C@@H]6O[C@H](C)[C@@H](O)[C@H](O)[C@H]6O)[C@H](O)[C@H]5O[C@H]5O[C@@H](C)[C@H](O)[C@@H](O)[C@@H]5O)[C@H]4O)[C@H]4C[C@@H](OS(=O)(=O)O)CC[C@]4(C)C3=CC[C@@]21C	inactive	

Reference: ChEMBL document CHEMBL1142608, “A ceramide and cerebroside from the starfish asterias amurensis Lütken and their plant-growth promotion activities” (J Nat Prod, 2006)
